Patent publication US10294202B2, “Pyrrolidinones as herbicides” (FMC Corporation, priority 2013, dated 2019)

Experiments:
bluegrass = assay: Test D pre-/postemergence herbicide test; assay type: in vivo, Poa annua; conditions: for Plant response rating: Bluegrass, scale 0 to 100; for Plant response rating, Bluegrass: scale 0 to 100 (0 no effect, 100 complete control)
Text: (§1) Seeds of plant species selected from bluegrass (annual bluegrass, Poa annua), blackgrass (Alopecurus myosuroides), canarygrass (littleseed canarygrass, Phalaris minor), chickweed (common chickweed, Stellaria media), galium (catchweed bedstraw, Galium aparine), bromegrass, downy (downy bromegrass, Bromus tectorum), field poppy (Papaver rhoeas), field violet (Viola arvensis), foxtail, green (green foxtail, Setaria viridis), deadnettle (henbit deadnettle, Lamium amplexicaule), ryegrass, Italian (Italian ryegrass, Lolium multiflorum), kochia (Kochia scoparia), lambsquarters (Chenopodium album), oilseed rape (Brassica napus), pigweed (Amaranthus retroflexus), chamomile (scentless chamomile, Matricaria inodora), Russian thistle (Salsola kali), speedwell (bird's-eye speedwell, Veronica persica), barley, spring (spring barley, Hordeum vulgare), wheat, spring (spring wheat, Triticum aestivum), buckwheat, wild (wild buckwheat, Polygonum convolvulus), mustard, wild (wild mustard, Sinapis arvensis), oat, wild (wild oat, Avena fatua), radish, wild (wild radish, Raphanus raphanistrum), […]), barley, winter (winter barley, Hordeum vulgare), and wheat, winter (winter wheat, Triticum aestivum) were planted into a silt loam soil and treated preemergence with test chemicals formulated in a non-phytotoxic solvent mixture which included a surfactant. At the same time, these species were planted in pots containing Redi-Earth® planting medium (Scotts Company, 14111 Scottslawn Road, Marysville, Ohio 43041) comprising spaghnum peat moss, vermiculite, wetting agent and starter nutrients and treated with postemergence applications of the test chemicals formulated in the same manner. Plants ranged in height from 2 to 18 cm (1- to 4-leaf stage). Treated plants and controls were maintained in a controlled growth environment for 7 to 21 days after which time all species were compared to controls and visually evaluated. Plant response ratings, summarized in Table D, are based on a scale of 0 to 100 where 0 is no effect and 100 is complete control. A dash (-) response means no test result.

canarygrass = assay: Test D pre-/postemergence herbicide test; assay type: in vivo, Phalaris minor; conditions: for Plant response rating: Canarygrass, scale 0 to 100; for Plant response rating, Canarygrass: scale 0 to 100 (0 no effect, 100 complete control)
Text: as §1

bermudagrass = assay: Test C pre-/postemergence herbicide test; assay type: in vivo, Cynodon dactylon
Text: (§2) Seeds of plant species selected from blackgrass (Alopecurus myosuroides), ryegrass, Italian (Italian ryegrass, Lolium multiflorum), wheat (winter wheat, Triticum aestivum), galium (catchweed bedstraw, Galium aparine), corn (Zea mays), crabgrass, large (large crabgrass, Digitaria sanguinalis), foxtail, giant (giant foxtail, Setaria faberii), johnsongrass (Sorghum halepense), lambsquarters (Chenopodium album), morningglory (Ipomoea coccinea), nutsedge, yellow (yellow nutsedge, Cyperus esculentus), pigweed (Amaranthus retroflexus), ragweed (common ragweed, Ambrosia elatior), soybean (Glycine max), barnyardgrass (Echinochloa crus-galli), oilseed rape (Brassica napus), waterhemp (common waterhemp, Amaranthus rudis), kochia (Kochia scoparia), oat, wild (wild oat, Avena fatua), surinam grass (Brachiaria decumbens), foxtail, green (green foxtail, Setaria viridis), goosegrass (Eleusine indica), bromegrass, downy (downy bromegrass, Bromus tectorum), nightshade (eastern black nightshade, Solanum ptycanthum), cocklebur (common cocklebur, Xanthium strumarium), cupgrass, woolly (woolly cupgrass, Eriochloa villosa), bermudagrass (Cynodon dactylon), sunflower, (common oilseed sunflower, Helianthus annuus), Russian thistle (Salsola kali) and velvetleaf (Abutilon theophrasti) were planted into a blend of loam soil and sand and treated preemergence with test chemicals formulated in a non-phytotoxic solvent mixture which included a surfactant. At the same time, plants selected from these crop and weed species and also barley (winter barley, Hordeum vulgare), […]), chickweed (common chickweed, Stellaria media), deadnettle (henbit deadnettle, Lamium amplexicaule), and canarygrass (littleseed canarygrass, Phalaris minor) were planted in pots containing Redi-Earth® planting medium (Scotts Company, 14111 Scottslawn Road, Marysville, Ohio 43041) comprising spaghnum peat moss, vermiculite, wetting agent and starter nutrients and treated with postemergence applications of test chemicals formulated in the same manner. Plants ranged in height from 2 to 18 cm (1- to 4-leaf stage) for postemergence treatments. Treated plants and controls were maintained in a greenhouse for 13 to 15 days, after which time all species were compared to controls and visually evaluated. Plant response ratings, summarized in Table C, are based on a scale of 0 to 100 where 0 is no effect and 100 is complete control. A dash (-) response means no test result.

foxtail, green = assay: Test C pre-/postemergence herbicide test; assay type: in vivo, Setaria viridis
Text: as §2

[1] = Preemergence, 31 g ai/ha, scale 0 to 100, 0 is no effect and 100 is complete control
[2] = Preemergence, 62 g ai/ha, scale 0 to 100
[3] = Preemergence, 125 g ai/ha, scale 0 to 100 (0 no effect, 100 complete control)
[4] = Preemergence, 31 g ai/ha, scale 0 to 100 (0 no effect, 100 complete control)
[5] = Preemergence, 250 g ai/ha, scale 0 to 100 (0 no effect, 100 complete control)
[6] = Postemergence, 31 g ai/ha, scale 0 (no effect) to 100 (complete control)
[7] = Postemergence, 62 g ai/ha, scale 0 to 100 (0 no effect, 100 complete control)
[8] = Postemergence, 125 g ai/ha, scale 0 to 100 (0 no effect, 100 complete control)
[9] = Postemergence, 250 g ai/ha, scale 0 to 100 (0 no effect, 100 complete control)
[10] = Postemergence, 16 g ai/ha, scale 0 to 100 (0 no effect, 100 complete control)
[11] = Preemergence, 16 g ai/ha, scale 0 to 100

SMILES | Plant response rating (bluegrass; Postemergence, 31 g ai/ha) | Plant response rating (bluegrass; Postemergence, 62 g ai/ha) | Plant response rating (bluegrass; Postemergence, 125 g ai/ha) | Plant response rating, Bluegrass (bluegrass; Preemergence, 62 g ai/ha) | Plant response rating, Bluegrass (bluegrass; Preemergence, 31 g ai/ha) | Plant response rating (bluegrass; Preemergence, 125 g ai/ha) | Plant response rating (bluegrass; Preemergence, 250 g ai/ha) | Plant response rating (canarygrass; Postemergence, 31 g ai/ha) | Plant response rating (canarygrass; Postemergence, 62 g ai/ha) | Plant response rating (canarygrass; Postemergence, 125 g ai/ha) | Plant response rating, Canarygrass (canarygrass; Preemergence, 62 g ai/ha) | Plant response rating, Canarygrass (canarygrass; Preemergence, 31 g ai/ha) | Plant response rating (canarygrass; Preemergence, 125 g ai/ha) | Plant response rating (canarygrass; Preemergence, 250 g ai/ha) | Plant response rating, Bermudagrass (bermudagrass; [2]) | Plant response rating, Bermudagrass (bermudagrass; [3]) | Plant response rating, Foxtail, Green (foxtail, green; [2]) | Plant response rating, Foxtail, Green (foxtail, green; [3]) | Bermudagrass plant response rating (bermudagrass; [4]) | Foxtail, Green plant response rating (foxtail, green; [4]) | other results
O=C1NCC(c2ccc(F)c(F)c2)C1C(=O)Nc1ccccc1C(F)(F)F (racemic) [Compound 6] | 0 | 0 | 0 | 0 | 0 | 0 | 0 | 0 | 0 | 0 | 10 | 0 | 20 | 20 |  |  |  |  |  |  | Plant response rating (bluegrass; Postemergence, 16 g ai/ha): 0; Plant response rating (bluegrass; Postemergence, 250 g ai/ha): 0; Plant response rating, Bluegrass (bluegrass; Preemergence, 16 g ai/ha): 0; Plant response rating (canarygrass; Postemergence, 16 g ai/ha): 0; Plant response rating (canarygrass; Postemergence, 250 g ai/ha): 0; Plant response rating, Canarygrass (canarygrass; Preemergence, 16 g ai/ha): 0
O=C1NCC(c2cccc(OC(F)(F)F)c2)C1C(=O)Nc1ccccc1F (stereo not shown) [Compound 69] |  |  |  |  |  |  |  |  |  |  |  |  |  |  | 35 | 50 | 90 | 95 |  |  | Bermudagrass plant response rating (bermudagrass; [1]): 35; Plant response rating (scale of 0 to 100), Bermudagrass (bermudagrass; Preemergence, 250 g ai/ha): 55; Foxtail, Green plant response rating (foxtail, green; [1]): 90; Plant response rating (scale of 0 to 100), Foxtail, Green (foxtail, green; Preemergence, 250 g ai/ha): 95
O=C1NCCC1C(=O)N(c1ccc(F)c(F)c1)c1ccccc1F (stereo not shown) [Compound 5, N-(3,4-difluorophenyl)-N-(2-fluorophenyl)-2-oxo-3-pyrrolidinecarboxamide] |  |  |  |  |  |  |  |  |  |  |  |  |  |  | 0 | 20 | 90 | 90 | 0 | 85 | Plant response rating, Bermudagrass (bermudagrass; [5]): 45; Plant response rating, Foxtail, Green (foxtail, green; [5]): 95
O=C1NCC(c2ccc(F)c(C(F)(F)F)c2)C1C(=O)Nc1cccc(F)c1F (racemic) [Compound 77] |  |  |  | 5 | 0 | 45 | 55 |  |  |  | 45 | 25 | 65 | 85 |  |  |  |  |  |  | 
O=C1NCC(c2ccc(C(F)(F)F)cc2)C1C(=O)Nc1ccccc1F (stereo not shown) [Compound 231] | 5 | 10 | 10 | 0 | 5 |  | 25 | 0 | 0 | 0 | 15 | 0 |  | 35 |  |  |  |  |  |  | Plant response rating (bluegrass; Postemergence, 250 g ai/ha): 10; Plant response rating, Bluegrass (bluegrass; Preemergence, 125 g ai/ha): 15; Plant response rating (canarygrass; Postemergence, 250 g ai/ha): 0; Plant response rating, Canarygrass (canarygrass; Preemergence, 125 g ai/ha): 20
O=C1NCC(c2cc(F)c(F)cc2F)C1C(=O)Nc1cccc(F)c1F (stereo not shown) [Compound 50] | 0 | 0 | 0 | 0 | 0 | 0 |  | 0 | 0 | 0 | 0 | 0 | 0 |  |  |  |  |  |  |  | Plant response rating, Bermudagrass (bermudagrass; [6]): 0; Plant response rating, Bermudagrass (bermudagrass; [7]): 0; Plant response rating, Bermudagrass (bermudagrass; [8]): 0; Plant response rating, Bermudagrass (bermudagrass; [9]): 0; Plant response rating, Foxtail, Green (foxtail, green; [6]): 0; Plant response rating, Foxtail, Green (foxtail, green; [7]): 0; Plant response rating, Foxtail, Green (foxtail, green; [8]): 0; Plant response rating, Foxtail, Green (foxtail, green; [9]): 30; Plant response rating (bluegrass; Postemergence, 16 g ai/ha): 0; Plant response rating, Bluegrass (bluegrass; Preemergence, 16 g ai/ha): 0; Plant response rating (canarygrass; Postemergence, 16 g ai/ha): 0; Plant response rating, Canarygrass (canarygrass; Preemergence, 16 g ai/ha): 0
O=C1NCC(c2cc(F)c(F)c(F)c2)C1C(=O)Nc1cccc(F)c1F (stereo not shown) [Compound 48] |  |  |  |  |  |  |  |  |  |  |  |  |  |  | 0 | 0 | 90 | 90 | 0 | 80 | Plant response rating, Bermudagrass (bermudagrass; [10]): 0; Plant response rating, Bermudagrass (bermudagrass; [6]): 0; Plant response rating, Bermudagrass (bermudagrass; [7]): 0; Plant response rating, Bermudagrass (bermudagrass; [8]): 10; Plant response rating, Bermudagrass (bermudagrass; [11]): 0; Plant response rating, Foxtail, Green (foxtail, green; [10]): 0; Plant response rating, Foxtail, Green (foxtail, green; [6]): 0; Plant response rating, Foxtail, Green (foxtail, green; [7]): 0; Plant response rating, Foxtail, Green (foxtail, green; [8]): 65; Plant response rating, Foxtail, Green (foxtail, green; [11]): 70
O=C1NCC(c2ccc(F)c(Cl)c2)C1C(=O)Nc1ccccc1F (stereo not shown) [Compound 60] |  |  |  |  |  |  |  |  |  |  |  |  |  |  | 0 | 0 | 90 | 90 | 0 | 90 | Plant response rating, Bermudagrass (bermudagrass; [6]): 0; Plant response rating, Bermudagrass (bermudagrass; [7]): 0; Plant response rating, Bermudagrass (bermudagrass; [8]): 0; Plant response rating, Foxtail, Green (foxtail, green; [6]): 20; Plant response rating, Foxtail, Green (foxtail, green; [7]): 35; Plant response rating, Foxtail, Green (foxtail, green; [8]): 45
